Laboratory results reported in patent EP4424671A1, “NOVEL TRICYCLIC DERIVATIVE COMPOUND AND USE THEREOF” (Huchembio Co., Ltd., priority 2021, dated 2023).

Tested on: STAT3 transcriptional activity
Assay: STAT3 transcriptional activity inhibitory effect, luciferase reporter assay with IL-6 stimulation
Assay type: cell-based, human
Conditions: for STAT3 transcriptional activity inhibitory effect % inhibition, 50-70% / inhibition at 1 µM / STAT3 transcriptional activity inhibitory effect % inhibition, 70% or more: IL-6 (10 ng/mL), 24 hours, HEK293 cells with STAT3 promoter and luciferase reporter; for inhibition at 1 µM: Homo sapiens, read-out: STAT3 transcriptional activity inhibitory effect % inhibition, 50% or less; for STAT3 activity inhibitory effect (in words): compounds at 1 µM compared with BBI-608 at 3 µM
Experimental: For HEK293 cells, an immortalized human kidney cell line, transformed HEK293 cells, in which an STAT3 promoter and a luciferase reporter were stably expressed, were used. The HEK293 cells, in which the STAT3 promoter was stably expressed, were cultured in a cell incubator at 5% CO2 and 37°C using an MEM (10% FBS) medium, and then an inhibitory effect on STAT3 transcriptional activity was confirmed by the following method.
First, HEK293 cells, in which the STAT3 promoter was stably expressed, were inoculated into a 96-well plate (white, clear bottom culture plate) at a density of 2X 10^4 cells/well, and then cultured in an incubator at 37°C and 5% CO2 for 24 hours. Then, the compound synthesized according to the above synthesis example (1 µM) or BBI-608 (Napabucasin; comparative group 3 µM) and IL-6 (10 ng/mL) were treated together, and reacted in an incubator at 37°C and 5% CO2 for 24 hours. Afterwards, the culture medium in the 96-well plate was removed, and the cells were lysed by treatment with Passive Lysis Buffer (Promega/Cat. Number E1941). Luciferase activity was tested using the Luciferase Assay System (Promega/Cat. Number E1501), and a luminescence value was measured using a microplate reader. A well not treated with IL-6 (10 ng/mL) without test substance treatment was used as a negative control, and a well treated with IL-6 (10 ng/mL) without test substance treatment was used as a positive control. A degree of STAT3 transcriptional activity inhibitory effect by the compound of the present invention was evaluated by comparing the luminescence values from each well.

Row | Structure (SMILES) | inhibition at 1 µM (compound concentration of 1 µM) [%] | STAT3 transcriptional activity inhibitory effect % inhibition, 70% or more (compound concentration of 1 µM) | STAT3 activity inhibitory effect (in words) | also measured
1 | CC(=O)c1cc2c(o1)C(=O)c1ccccc1C2=O [BBI-608, Napabucasin, reference compound] |  |  |  | STAT3 transcriptional activity inhibitory effect % inhibition, 50-70% (comparative group at 3 uM): ○ (50-70%)
2 | O=C1C(=O)c2cc(-c3cncc4ccccc34)ccc2-c2ccc(Br)cc21 [Compound 2, 2-bromo-7-(isoquinolin-4-yl)phenanthrene-9,10-dione] | ≤ 50 |  |  | 
3 | O=c1c2ccccc2oc2ccc(-c3cncc4ccccc34)cc12 [Compound 3, 2-(isoquinolin-4-yl)-9H-xanthen-9-one] | ≤ 50 |  |  | 
4 | O=c1c2ccccc2sc2ccc(-c3cncc4ccccc34)cc12 [Compound 4, 2-(isoquinolin-4-yl)-9H-thioxanthen-9-one] |  |  |  | STAT3 transcriptional activity inhibitory effect % inhibition, 50-70% (compound concentration of 1 µM): ○ (50-70%)
5 | O=C1c2ccccc2-c2ccc(-c3cncc4nccnc34)cc21 [Compound 5, 2-(pyrido[3,4-b]pyrazin-8-yl)-9H-fluoren-9-one] |  |  |  | STAT3 transcriptional activity inhibitory effect % inhibition, 50-70% (compound concentration of 1 µM): ○ (50-70%)
6 | O=C1c2ccccc2-c2ccc(-c3cncc4cccnc34)cc21 [Compound 7, 2-(1,6-naphthyridin-8-yl)-9H-fluoren-9-one] |  | ○ (70% or more) | excellent STAT3 activity inhibitory effect | 
7 | O=C1c2ccccc2-c2ccc(-c3nccc4ncccc34)cc21 [Compound 8, 2-(1,6-naphthyridin-5-yl)-9H-fluoren-9-one] |  | ○ (70% or more) | excellent STAT3 activity inhibitory effect | 
8 | O=C1c2ccccc2-c2ccc(-c3cnn4ccccc34)cc21 [Compound 9, 2-(pyrazolo[1,5-a]pyridin-3-yl)-9H-fluoren-9-one] |  | ○ (70% or more) | excellent STAT3 activity inhibitory effect | 
9 | O=C1c2ccccc2-c2ccc(-c3cnc4ccccn34)cc21 [Compound 10, 2-(imidazo[1,2-a]pyridin-3-yl)-9H-fluoren-9-one] | ≤ 50 |  |  | 
10 | c1ccc2c(-c3ccc4c(c3)sc3ccccc34)cncc2c1 [Compound 11, 4-(dibenzo[b,d]thiophen-3-yl)isoquinoline] | ≤ 50 |  |  | 
11 | c1ccc2c(-c3ccc4c(c3)oc3ccccc34)cncc2c1 [Compound 12, 4-(dibenzo[b,d]furan-3-yl)isoquinoline] | ≤ 50 |  |  | 
12 | c1ccc2c(-c3ccc4c(c3)[nH]c3ccncc34)cncc2c1 [Compound 13, 7-(isoquinolin-4-yl)-5H-pyrido[4,3-b]indole] |  | ○ (70% or more) | excellent STAT3 activity inhibitory effect | 
13 | O=C1c2ccccc2-c2ccc(-c3cncc4ccccc34)cc21 [Compound 14, 2-(isoquinolin-4-yl)-9H-fluoren-9-one] |  | ○ (70% or more) | excellent STAT3 activity inhibitory effect | 
14 | c1ccc2c(-c3ccc4c(c3)[nH]c3ccccc34)cncc2c1 [Compound 15, 2-(isoquinolin-4-yl)-9H-carbazole] |  |  |  | STAT3 transcriptional activity inhibitory effect % inhibition, 50-70% (compound concentration of 1 µM): ○ (50-70%)
15 | c1ccc2c(-c3ccc4c5c([nH]c4c3)CCCC5)cncc2c1 [Compound 16, 7-(isoquinolin-4-yl)-2,3,4,9-tetrahydro-1H-carbazole] |  |  |  | STAT3 transcriptional activity inhibitory effect % inhibition, 50-70% (compound concentration of 1 µM): ○ (50-70%)
16 | O=C1c2ccccc2-c2ccc(-c3cccc4ccncc34)cc21 [Compound 17, 2-(isoquinolin-8-yl)-9H-fluoren-9-one] | ≤ 50 |  |  | 
17 | O=C1c2ccccc2-c2ccc(-c3cccc4cnccc34)cc21 [Compound 18, 2-(isoquinolin-5-yl)-9H-fluoren-9-one] |  |  |  | STAT3 transcriptional activity inhibitory effect % inhibition, 50-70% (compound concentration of 1 µM): ○ (50-70%)
18 | O=C1c2ccccc2-c2ccc(-c3cccc4nccn34)cc21 [Compound 19, 2-(imidazo[1,2-a]pyridin-5-yl)-9H-fluoren-9-one] | ≤ 50 |  |  | 
19 | O=C1c2ccccc2-c2ccc(-c3cccn4cnnc34)cc21 [Compound 20, 2-([1,2,4]triazolo[4,3-a]pyridin-8-yl)-9H-fluoren-9-one] | ≤ 50 |  |  | 
20 | c1ccc2c(-c3ccc4c5c([nH]c4c3)CCC5)cncc2c1 [Compound 21, 6-(isoquinolin-4-yl)-1,2,3,4-tetrahydrocyclopenta[b]indole] |  | ○ (70% or more) | excellent STAT3 activity inhibitory effect | 
21 | O=C1c2ccccc2-c2ccc(-c3nccc4ccccc34)cc21 [Compound 22, 2-(isoquinolin-1-yl)-9H-fluoren-9-one] | ≤ 50 |  |  | 
22 | O=C1c2ccccc2-c2ccc(-c3cccn4ccnc34)cc21 [Compound 23, 2-(imidazo[1,2-a]pyridin-8-yl)-9H-fluoren-9-one] |  | ○ (70% or more) | excellent STAT3 activity inhibitory effect | 
